Measurements from patent US20170009266A1, “PROCESS FOR THE ATTACHMENT OF A GALNAC MOIETY COMPRISING A (HETERO)ARYL GROUP TO A GLCNAC MOIETY, AND PRODUCT OBTAINED THEREBY” (SYNAFFIX B.V., priority 2014, published 2017).
Residue numbers refer to the chain shown, from its start. Values belong to the compound of their own block, whether it stands above or below them.

How the values were obtained:
Gal-T1(Y289L,C342T) = target: T1, Gal-T1(Y289L,C342T) (Bos taurus, UniProt P08037, C342T/Y289L); assay: Glycosyltransfer to trimmed trastuzumab with Gal-T1(Y289L,C342T) expressed in CHO; format: biochemical, bovine; settings: trimmed trastuzumab 10 mg/mL; UDP derivative 1 mM; enzyme 1.0 mg/mL; pH 8.0, 30° C. overnight
T1 construct: host or cells: CHO K1
T1 sequence (P08037 74-402 V158I/P187L/I205M/L206V/Y289L/C342T): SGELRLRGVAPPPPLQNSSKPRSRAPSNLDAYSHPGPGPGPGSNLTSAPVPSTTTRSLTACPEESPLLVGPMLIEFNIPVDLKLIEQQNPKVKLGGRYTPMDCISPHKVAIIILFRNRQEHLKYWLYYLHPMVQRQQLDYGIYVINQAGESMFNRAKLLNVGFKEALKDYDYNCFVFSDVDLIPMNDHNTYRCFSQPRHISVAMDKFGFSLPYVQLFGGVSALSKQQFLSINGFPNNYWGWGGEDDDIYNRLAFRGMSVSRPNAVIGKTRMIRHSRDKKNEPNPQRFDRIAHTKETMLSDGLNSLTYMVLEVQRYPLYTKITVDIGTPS
Experimental: (§1) A solution of 20 μg (modified) IgG was incubated for 1 hour at 37° C. with Fabricator™ (commercially available from Genovis, Lund, Sweden) (1.25 U/μL) in phosphate-buffered saline (PBS) pH 6.6 in a total volume of 10 μL. Fabricator™-digested samples were washed trice with milliQ using an Amicon Ultra-0.5, Ultracel-10 Membrane (Millipore) resulting in a final sample volume of approximately 40 μL. The Fc/2 fragment was analyzed by electrospray ionization time-of-flight (ESI-TOF) on a JEOL AccuTOF. Deconvoluted spectra were obtained using Magtran software.
(§2) A set of Gal-T 1 mutants encoding residues 74-402 of bovine Gal-T 1 were transiently expressed in CHO K1 cells by Evitria (Zurich, Switzerland) which include the Gal-T1 single mutants Y289L (represented by SEQ ID NO: 26), Y289F (represented by SEQ ID NO: 27), Y289M (represented by SEQ ID NO: 28), Y289V (represented by SEQ ID NO: 29), Y289A (represented by SEQ ID NO: 30), and Y289G (represented by SEQ ID NO: 31), and the Gal-T1 double mutants Y289L,C342T (represented by SEQ ID NO: 32), and Y289M,C342T (represented by SEQ ID NO: 33). The mutants were purified using a cation exchange column (Source 15S HR16/10 column, GE Healthcare) as described above. Purified proteins were analyzed by SDS-PAGE. […]

Gal-T1(Y289M,C342T) = target: T2, Gal-T1(Y289M,C342T) (Bos taurus, UniProt P08037, C342T/Y289M); assay: Glycosyltransfer to trimmed trastuzumab with Gal-T1(Y289M,C342T) expressed in CHO; format: biochemical, bovine; settings: trimmed trastuzumab 10 mg/mL; UDP derivative 5 mM; enzyme 1.0 mg/mL; pH 8.0, 30° C. overnight
T2 construct: host or cells: CHO K1
T2 sequence (P08037 74-402 V158I/P187L/I205M/L206V/Y289M/C342T): T1 sequence (P08037 74-402 V158I/P187L/I205M/L206V/Y289L/C342T) with L216M
Experimental: as §1, §2

β(1,4)-Gal-T1(Y289L) = target: T3, β(1,4)-Gal-T1(Y289L) (Bos taurus, UniProt P08037, I205M/L206V/P187L/V158I/Y289L); assay: Glycosyltransfer of UDP-galactosamine derivatives to trimmed trastuzumab with Gal-T1(Y289L) expressed in E. coli, mass spectral analysis; format: biochemical, bovine; settings: trimmed trastuzumab 10 mg/mL, pH 8.0, 30° C. overnight, reduced sample
T3 construct: made in house; host or cells: E. coli
T3 sequence (P08037 1-402 V158I/P187L/I205M/L206V/Y289L): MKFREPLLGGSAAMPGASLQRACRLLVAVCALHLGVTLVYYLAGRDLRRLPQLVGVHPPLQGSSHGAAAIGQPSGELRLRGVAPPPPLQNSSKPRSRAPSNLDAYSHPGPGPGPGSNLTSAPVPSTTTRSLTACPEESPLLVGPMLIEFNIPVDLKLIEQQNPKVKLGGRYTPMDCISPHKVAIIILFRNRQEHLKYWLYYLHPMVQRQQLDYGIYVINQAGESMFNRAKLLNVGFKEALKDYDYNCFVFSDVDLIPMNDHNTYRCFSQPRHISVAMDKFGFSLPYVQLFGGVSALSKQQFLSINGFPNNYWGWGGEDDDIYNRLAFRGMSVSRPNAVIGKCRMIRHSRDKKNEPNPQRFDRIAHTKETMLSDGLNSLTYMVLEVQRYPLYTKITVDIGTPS
Experimental: General Protocol for Glycosyltransfer of Galactose Derivative UDP-GalNAz 21-24 with Gal-T1(Y289L) (Expressed in E. coli).
Enzymatic introduction of UDP-Gal derivatives 21-24 onto deglycosylated trastuzumab was effected with a mutant of bovine β(1,4)-galactosyltransferase [β(1,4)-Gal-T1(Y289L)] (expressed in E. coli). The deglycosylated trastuzumab (10 mg/mL) was incubated with the appropriate UDP-galactose derivative (0.4 mM) and β(1,4)-Gal-T1(Y289L) (1 mg/mL) in 10 mM MnCl2 and 25 mM Tris-HCl pH 8.0 for 16 hours at 30° C.
Next, the functionalized trastuzumab was incubated with protein A agarose (40 μL per mg IgG) for 2 hours at 4° C. The protein A agarose was washed three times with PBS and the IgG was eluted with 100 mM glycine-HCl pH 2.7. The eluted IgG was neutralized with 1 M Tris-HCl pH 8.0 and concentrated and washed with PBS using an Amicon Ultra-0.5, Ultracel-10 Membrane (Millipore) to a concentration of 15-20 mg/mL.
Trimmed trastuzumab (10 mg/mL, 3.3 nmol), obtained by Endo S treatment of trastuzumab, was incubated with UDP-galactosamine variant 21 (2.5 mM) and β(1,4)-Gal-T1(Y289L) (0.68 mg/mL, 45 μL) in 10 mM MnCl2 and 25 mM Tris-HCl pH 8.0 at 30° C. overnight.
Trimmed trastuzumab (10 mg/mL, 1.3 nmol), obtained by Endo S treatment of trastuzumab, was incubated with UDP-galactosamine variant 22 (4 mM) and β(1,4)-Gal-T1(Y289L) (1.4 mg/mL, 10 μL) in 10 mM MnCl2 and 25 mM Tris-HCl pH 8.0 at 30° C. overnight. Mass spectral analysis of the reduced sample indicated the formation of the product (49750.9 Da, approximately 80% of total heavy chain), resulting from galactosamide furan-2-carboxyl acid transfer to core GlcNAc(Fuc) substituted trastuzumab heavy chain as shown in FIG. 9.
Trimmed trastuzumab (10 mg/mL, 6.6 nmol), obtained by Endo S treatment of trastuzumab, was incubated with the 4-azido-3,5-difluorobenzoyl derivative of UDP-galactosamine (23, 7 mM) and β(1,4)-Gal-T1(Y289L) (2 mg/mL) in 10 mM MnCl2 and 25 mM Tris-HCl pH 8.0 at 30° C. overnight. Mass spectral analysis of the reduced sample indicated the formation of a one major product (49813 Da, approximately 90% of total heavy chain), resulting from transfer of 23 to core GlcNAc(Fuc)-substituted trastuzumab heavy chain.
Trimmed trastuzumab (10 mg/mL, 1.3 nmol), obtained by Endo S treatment of trastuzumab, was incubated with UDP-galactosamine variant 24 (4 mM) and (3(1,4)-Gal-T1(Y289L) (1.4 mg/mL, 10 μL) in 10 mM MnCl2 and 25 mM Tris-HCl pH 8.0 at 30° C. overnight.

β4Gal-T1 = target: T4, β4Gal-T1 (Bos taurus, UniProt P08037); settings: native enzyme; cited from earlier work
T4 sequence (P08037 1-402): T3 sequence (P08037 1-402 V158I/P187L/I205M/L206V/Y289L) with I158V, L187P, M205I, V206L, L289Y

β4Gal-T1(Y289L) = target: T5, β4Gal-T1(Y289L) (Bos taurus, UniProt P08037, Y289L); settings: GlcNAc acceptor; cited from earlier work
T5 sequence (P08037 1-402 Y289L): T3 sequence (P08037 1-402 V158I/P187L/I205M/L206V/Y289L) with I158V, L187P, M205I, V206L

[1] = UDP derivative 4 mM, enzyme 1.4 mg/mL

SMILES: [N-]=[N+]=Nc1c(F)c(F)c(C(=O)N[C@H]2[C@@H](OP(=O)(O)OP(=O)(O)OC[C@H]3O[C@@H](n4ccc(=O)[nH]c4=O)[C@H](O)[C@@H]3O)O[C@H](CO)[C@H](O)[C@@H]2O)c(F)c1F [Compound 23b, 4-azido-2,3,5,6-tetrafluorobenzoyl Derivative of UDP-GalNH2]
conversion into product (Gal-T1(Y289L,C342T)): approximately 70% | conversion into product (Gal-T1(Y289M,C342T)): approximately 10%

product, % of total heavy chain (β(1,4)-Gal-T1(Y289L); [1]): approximately 90%
SMILES: O=C(NC1C(OP(=O)(O)OP(=O)(O)OCC2OC(n3ccc(=O)[nH]c3=O)C(O)C2O)OC(CO)C(O)C1O)C1CCCC1 (stereo not shown) [Compound 24, Cyclopentylcarbonyl Derivative of UDP-GalNH2]

SMILES: CC(=O)N[C@H]1[C@@H](OP(=O)(O)OP(=O)(O)OC[C@H]2O[C@@H](n3ccc(=O)[nH]c3=O)[C@H](O)[C@@H]2O)O[C@H](CO)[C@H](O)[C@@H]1O [UDP-GalNAc]
efficiency of GalNAc transfer compared to Gal transfer from UDP-Gal (β4Gal-T1): 0.1% | efficiency of GalNAc transfer relative to β4Gal-T1/Gal transfer (β4Gal-T1(Y289L)): ~100%

SMILES: O=C(NC1C(OP(=O)(O)OP(=O)(O)OCC2OC(n3ccc(=O)[nH]c3=O)C(O)C2O)OC(CO)C(O)C1O)c1cccnc1 (stereo not shown) [Compound 21, 3-pyridylcarbonyl Derivative of UDP-GalNH2]
product, % of total heavy chain (β(1,4)-Gal-T1(Y289L); UDP derivative 2.5 mM, enzyme 0.68 mg/mL): approximately 5%

product, % of total heavy chain (β(1,4)-Gal-T1(Y289L); [1]): approximately 80%
SMILES: O=C(NC1C(OP(=O)(O)OP(=O)(O)OCC2OC(n3ccc(=O)[nH]c3=O)C(O)C2O)OC(CO)C(O)C1O)c1ccco1 (stereo not shown) [Compound 22, Furylcarbonyl Derivative of UDP-GalNH2]
